Assays:
[1] = humans, cited from earlier work; for body fat: intranasal administration
[2] = acute intranasal, humans; ACTH4-10 1 mg, desacetyl-αMSH equimolar 1.68 mg; cited from earlier work
ob/ob mice [3] = test: Intranasal (IN) efficacy, food intake in fasted ob/ob mice; format: in vivo
Description: Subjects: ob/ob mice; approximately 10 weeks old males; body weight 50-60 grams.
The mice were divided into the following groups: • 1) Mice received only vehicle. The vehicle was one of the following: water, 10 mM phosphate buffer, 5% captisol in 10 mM phosphate buffer (see Table 1 for details). • 2) Mice received a compound of an embodiment of the present invention at a dosage of 1 mg/kg. • 3) Mice received a compound of an embodiment of the present invention at a dosage of 3 mg/kg. • 4) Mice received a compound of an embodiment of the present invention at a dosage of 6 mg/kg. n=6-8 animals per group
Note: For compound 1 and compound 2, the 1 mg/kg group was not included.
Animals were fasted overnight (˜16 hours), and an MC4-R agonist compound as described in Tables 1-3 was administered at 8:30 am next day. The administration volume was 20-25 μl/50 grams of body weight. […]
IN Efficacy Procedure: Mice were fasted overnight. […] Food weight was measured at 1, 2, 3, 4, 6, and 8 hours following the dosing. […]
(§1) IN Efficacy Procedure: Mice were fasted overnight. […] Food weight was measured at 1, 2, 3, 4, 6, and 8 hours following the dosing.
as §1
IN Efficacy Procedure: Mice were fasted overnight. […] Food weight was measured at 1, 2, 3, 4, and 6 hours following the dosing.

ob/ob mice [4] = test: Oral (PO) efficacy, food intake in fasted ob/ob mice; format: in vivo; conditions: 30 mg/kg given orally, FIG. 1B
Description: Subjects: ob/ob mice, ˜10 weeks old males. Body weight ˜50 grams.
PO Efficacy Groups: • 1) Vehicle=water • 2) Compound 1=200 μl of 2.5 mg/ml (10 mg/kg) • 3) Compound 1=200 μl of 7.5 mg/ml (30 mg/kg) n=8/group fasted
PO Efficacy Procedure: Mice were fasted overnight. At about 9:00 am the next morning, they were dosed with 200 μl of vehicle or compound solution by oral gavage. Mice were fed with pre-weighed food immediately after dosing, and had access to water the entire time. Food weight was measured at 1, 2, 3, 4, 6, and 24 hours following the dosing.

[5] = after intranasal administration

| Molecule | body fat [1] | processing negativity (PN) of the ERP over frontal and central cortical areas [2] | reduction in cumulative food intake (ob/ob mice [3]; 3 mg/kg administered intranasally, FIG. 1A) [%] | increase in biological effect, intranasal versus oral, dose-normalised (ob/ob mice [3]; ((59%/39%)÷(3/30)), 3 mg/kg intranasal vs 30 mg/kg oral) | decrease in cumulative food intake (ob/ob mice [4]) [%] | insulin levels [1, 5] | plasma leptin levels [1, 5] |
| --- | --- | --- | --- | --- | --- | --- | --- |
| desacetyl-αMSH | nonsignificant | ineffective | – | – | – | – | – |
| COc1ccc(CCNC(=O)c2ccc(N/C(=N/[C@H]3C[C@H]4C[C@@H]([C@@H]3C)C4(C)C)N3CCN[C@@H](C)C3)cc2)c(F)c1 [Compound 1] | – | – | 59 | approximately 15.1 times | 39 | – | – |
| melanocyte stimulating hormone/adrenocorticotropin4-10 (MEHFRWG; Corticotropin; UniProt P01189 141-147, looked up, fragment) [MSH/ACTH4-10] | reduced body fat | reduced | – | – | – | decreased | decreased |

Source: patent US20070004743A1, “Intranasal administration of mc4-r agonists” (priority 2002, published 2007)
